≈ marks a conversion by molar mass, not a printed value. Where two headings read alike, the source gives them in different places. No end group written: not given here.
How the values were obtained:
[1] = system: human red blood cells (hRBC's); test: Hemolysis assay; type: cell-based; settings: for Hemolysis HC10 / Hemolysis HC50: red cells of human
Summary of the method: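 Washed human RBCs (K2 EDTA) as 5% v/v suspension in PBS, mixed 1:1 with two-fold serial peptide dilutions (250–1.6 μg/ml, or 1 mg/ml–6.3 μg/ml for lipidated γ-AApeptides) in PBS; 1 h at 37 °C. Supernatant OD 360 nm, normalised to PBS (0%) and 0.2% Triton-X-100 (100%); H50 = concentration giving 50% hemolysis.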

[2] = system: Gram-positive and Gram-negative bacteria and the fungus C. albicans; test: Antimicrobial assays, whole panel (statements in words); type: cell-based
[3] = system: K. pneumoniae (ATCC 13383)
[4] = system: multi-drug resistant P. aeruginosa ATCC 27853; settings: ATCC 27853
[5] = system: multi-drug resistant S. epidermidis (RP62A); settings: for MIC, Gram positive S. epidermidis: Table 7
[6] = system: vancomycin-resistant E. faecalis (ATCC 700802); settings: for MIC, Gram positive E. faecalis: Table 7
[7] = system: methicillin-resistant S. aureus (ATCC 33592); settings: for MIC, Gram positive S. aureus: Table 7
S. aureus ATCC 33592 = type: cell-based; settings: serial passage at half-MIC
[8] = system: methicillin-resistant S. aureus (MRSA, USA100 lineage); settings: for MIC, MRSA USA100: Table 3
[9] = system: human red blood cells (hRBC's); settings: cited from earlier work

## CCCCCCCCCCCC(=O)N[C@@H](CCCCN)CN(CC(N)=O)C(=O)CCCN [Sequence 1]
[1]
  Hemolysis HC10: 400 µg/mL
  Hemolysis HC50: > 500 µg/mL
[2]
  antimicrobial activity against the tested panel, in words: not active toward any microorganism
E. coli (JM109)
  MIC, Gram negative E. coli: >50 µg/mL
[3]
  MIC, Gram negative K. pneumoniae: >50 µg/mL
[4]
  MIC, Gram negative P. aeruginosa: >50 µg/mL
B. subtilis (BR151)
  MIC, Gram positive B. subtilis: >50 µg/mL
[5]
  MIC, Gram positive S. epidermidis: >50 µg/mL
[6]
  MIC, Gram positive E. faecalis: >50 µg/mL
[7]
  MIC, Gram positive S. aureus: >50 µg/mL
C. albicans (ATCC 10231); ATCC 10231
  MIC, Fungi, C. albicans: >50 µg/mL

## CCn1cc(C(=O)O)c(=O)c2cc(F)c(N3CCNCC3)cc21 [norfloxacin, reference compound]
S. aureus ATCC 33592
  passages after which the MIC started to increase: three

## CC(C)C[C@@H](CN(CC(=O)N[C@@H](CCCCN)CN(CC(N)=O)C(=O)CCc1ccccc1)C(=O)CCc1ccccc1)NC(=O)CN(C[C@H](CCCCN)NC(=O)CN(C[C@H](CCCCN)NC(=O)CN(C[C@H](CC(C)C)NC(=O)CN(C[C@H](CCCCN)NC(=O)CN(C[C@@H](N)CCCCN)C(=O)CCc1ccccc1)C(=O)CCc1ccccc1)C(=O)CCc1ccccc1)C(=O)CCc1ccccc1)C(=O)CCc1ccccc1 [γ5]
[1]
  Hemolysis (H50): 300 µg/mL
  Hemolysis H10: 75 µg/mL
  Hemolysis H50: 300 µg/mL
  Hemolysis HC10: 75 µg/mL
  Hemolysis HC50: 300 µg/mL
E. coli (JM109)
  MIC, E. coli: 2.5 to 5 µg/mL
  MIC, Gram negative E. coli: 3 µg/mL (≈ 1.42 µM)
[3]
  MIC, Gram negative K. pneumoniae: 5 µg/mL (≈ 2.37 µM)
  MIC, K. pneumoniae (causing pneumonia): 5 µg/mL (≈ 2.37 µM)
[4]
  MIC, Gram negative P. aeruginosa: >50 µg/mL
  MIC, P. aeruginosa: 25 to 50 µg/mL
B. subtilis (BR151)
  MIC, B. subtilis: 2 µg/mL (≈ 0.947 µM)
  MIC, Gram positive B. subtilis: 2 µg/mL (≈ 0.947 µM)
[5]; Table 1
  MIC, S. epidermidis (multi-drug resistant): 3.1 to 6.25 µg/mL
[5]; Table 3
  MIC, S. epidermidis (multi-drug resistant): 3.1 to 6.3 µg/mL
[5]
  MIC, Gram positive S. epidermidis: 5 µg/mL (≈ 2.37 µM)
[6]; Table 1
  MIC, E. faecalis (vancomycin-resistant): 3.1 to 6.25 µg/mL
[6]; Table 3
  MIC, E. faecalis (vancomycin-resistant): 3.1 to 6.3 µg/mL
[6]
  MIC, Gram positive E. faecalis: 5 µg/mL (≈ 2.37 µM)
[7]; Table 1
  MIC, S. aureus (methicillin-resistant): 5 µg/mL (≈ 2.37 µM)
[7]
  MIC, Gram positive S. aureus: 5 µg/mL (≈ 2.37 µM)
[8]; Table 1
  MIC, MRSA USA100 (leading hospital-associated strain): 5 µg/mL (≈ 2.37 µM)
[8]
  MIC, MRSA USA100: 5 µg/mL (≈ 2.37 µM)
B. anthracis; Table 1
  MIC, B. anthracis (lethal bioweapon): 5 µg/mL (≈ 2.37 µM)
C. albicans (ATCC 10231); ATCC 10231
  MIC, Fungi C. albicans: 5 to 10 µg/mL
  MIC, Fungi, C. albicans: 8 µg/mL (≈ 3.79 µM)
C. albicans (ATCC 10231); ATCC 10231, 48 h
  MIC, Fungi C. albicans: 5 to 10 µg/mL

## CCCCCCCCCCCCCCCC(=O)N[C@@H](C)CN(CC(=O)N[C@@H](C)CN(CC(=O)N[C@@H](CC(C)C)CN(CC(=O)N[C@@H](CC(C)C)CN(CC(=O)N[C@@H](CC(C)C)CN(CC(N)=O)C(=O)CCCN)C(=O)CCCN)C(=O)CCCN)C(C)=O)C(C)=O [γAA2]
[1]
  Hemolysis (H50): >500 µg/mL
S. aureus ATCC 33592; 17 days
  development of resistance (change in MIC over 17 passages), in words: did not cause resistance
E. coli (JM109)
  MIC, E. coli: 2.5 µg/mL (≈ 1.94 µM)
[3]
  MIC, K. pneumoniae (causing pneumonia): 5 µg/mL (≈ 3.87 µM)
[4]
  MIC, P. aeruginosa: 25 to 50 µg/mL
B. subtilis (BR151)
  MIC, B. subtilis: 2.5 µg/mL (≈ 1.94 µM)
[5]; Table 3
  MIC, S. epidermidis (multi-drug resistant): 4 µg/mL (≈ 3.1 µM)
[6]; Table 3
  MIC, E. faecalis (vancomycin-resistant): 5 µg/mL (≈ 3.87 µM)
[7]; Table 3
  MIC, S. aureus (methicillin-resistant): 4 µg/mL (≈ 3.1 µM)
[8]
  MIC, MRSA USA100: 10 µg/mL (≈ 7.74 µM)
B. anthracis; Table 3
  MIC, B. anthracis (lethal bioweapon): 5 µg/mL (≈ 3.87 µM)
C. albicans (ATCC 10231); ATCC 10231
  MIC, Fungi C. albicans: 5 µg/mL (≈ 3.87 µM)

## GIGKFLKKAKKFGKAFVKILKK-NH2 [Pexiganan, pexiganan]
[9]
  Hemolysis (H50): >500 µg/mL
  Hemolysis H10: 181 µg/mL
  Hemolysis H50: 495 µg/mL

## KFKFKFKFKFKFKF-NH2 [pl, reference compound]
[1]
  Hemolysis (H50): >500 µg/mL
[2]
  antimicrobial activity against the tested panel, in words: does not show any antimicrobial activity at all
E. coli (JM109)
  MIC, E. coli: >100 µg/mL
[3]
  MIC, K. pneumoniae (causing pneumonia): >100 µg/mL
B. subtilis (BR151)
  MIC, B. subtilis: >100 µg/mL
[5]; Table 1
  MIC, S. epidermidis (multi-drug resistant): >100 µg/mL
[6]; Table 1
  MIC, E. faecalis (vancomycin-resistant): >100 µg/mL
[7]; Table 1
  MIC, S. aureus (methicillin-resistant): >100 µg/mL
C. albicans (ATCC 10231); ATCC 10231, 48 h
  MIC, Fungi C. albicans: >100 µg/mL

Source: US10308686B2, “Gamma-AApeptides with potent and broad-spectrum antimicrobial activity” (priority 2012, dated 2019)
